# Test results published in patent US7879835B2 (Korea Research Institute of Chemical Technology, priority 2004, dated 2011).
# Experiments:
# [1] = tested on: osteoclast (TRAP-positive multinuclear cell) formation; test: Inhibitory effect on osteoclast formation (TRAP staining); format: cell-based, mice; details: compared to control; for inhibition at 0.1 µM / inhibition at 0.3 µM / inhibition at 1 µM / inhibition at 3 µM: Mus musculus, Osteoclast, read-out: Osteoclast formation inhibitory effects (%); for inhibition at 0.1 µM: 0.1 μM (Table 4b); for inhibition at 0.3 µM: 0.3 μM (Table 4b); for inhibition at 1 µM: 1 μM (Table 4b); for inhibition at 3 µM: 3 μM (Table 4b); for Osteoclast formation inhibitory effects (%): 8 days culture with M-CSF and RANKL
# Experimental: The inhibitory activities of the alpha-arylmethoxyacrylate derivatives prepared in the above Examples on the proliferation of osteoclasts were examined as follows.
# First, a bone marrow sample containing osteoclast pregenitor cells was isolated as follows. After sacrificing 7 to 9 week-old female mice by cervical dislocation, femur and tibia were excised aseptically while removing soft tissues attached thereto, After cutting both ends of the long bones, 1 ml of an enzyme solution containing 0.1% collagenase (Gibco), 0.05% trypsin and 0.5 mM EDTA (Gibco) was injected into the bone marrow cavity at one end using a syringe with a 26-gauge needle, and the bone marrow was then collected. After stirring the recovered bone marrow for 30 min, the precipitated bone marrow cells were collected, and cultured in α-minimum essential medium (α-MEM) supplemented with 10% FBS for 24 hrs. Then, non-adherent cells, which are osteoclast pregenitors, were aliquoted onto a culture plate at a density of 2×10^5 cells per well, and cultured for 8 days in α-MEM supplemented with 20 ng/ml of macrophage-colony stimulating factor (M-CSF, Peprotech, USA), 30 ng/ml RANKL (Peprotech, USA), and 0.3, 1.0 or 3 μM of the compounds of the Examples. Control cells were cultured at the same condition except not adding the compounds of the Examples.
# After cell culture for 8 days, the adherent cells were washed with PBS and fixed with citrate-acetate-formaldehyde for 5 min. The fixed cells were incubated at 37° C. for 1 hr in acetate buffer (pH 5.0) containing naphthol AS-BI phosphate, fast Garnet GBC solution and 7 mM tartrate buffer (pH 5.0) to conduct TRAP (tartrate-resistant acid phosphatase) staining.
# [2] = tested on: osteoclasts; test: Inhibitory effect on resorption activity of osteoclast (resorption pit area on calcium phosphate-coated plate); format: cell-based, mice; details: compared to control
# Experimental: After finishing culture, the plate was washed with distilled water, and 50 μl/well of 5% sodium hypochlorite was added to the plate. The plate was let alone for 5 min, washed again with distilled water to remove the adherent cells, and dried at room temperature. Then, the area of formed resorption pits was calculated by means of Image Pro Plus software (Media Cybernetics Ver. 3.0).
SMILES,inhibition at 0.1 µM [1],inhibition at 0.3 µM [1],inhibition at 1 µM [1],inhibition at 3 µM [1],Reduction (%) of the resorption pit area of osteoclasts ([2]; 0.3 uM),Reduction (%) of the resorption pit area of osteoclasts ([2]; 1 uM),Reduction (%) of the resorption pit area of osteoclasts ([2]; 3 uM),Osteoclast formation inhibitory effects (%) ([1]; 0.3 μM),Osteoclast formation inhibitory effects (%) ([1]; 1.0 μM),Osteoclast formation inhibitory effects (%) ([1]; 3.0 μM)
"CO/C=C(/C(=O)OC)c1ccccc1COc1ccc(NCC(C)C)cc1F [Compound No. 425, (E)-methyl-2-[2-((4-(N-isobutylamino)-2-fluorophenoxy)methyl)phenyl]-3-methoxyacrylate]",0%,51%,100%,100%,,,,,,
CO/C=C(/C(=O)OC)c1ccccc1COc1ccc(C(C)F)cc1 (stereo not shown) [compound 170],,,,,0%,100%,100%,81%,100%,100%
CO/C=C(/C(=O)OC)c1ccccc1COc1ccc(OC2CCCC2)cc1 [compound 172],,,,,90%,100%,100%,90%,100%,100%
CO/C=C(/C(=O)OC)c1ccccc1COc1ccc(OCC(C)C)cc1 [compound 174],,,,,100%,100%,100%,35%,100%,100%
CCC(C)Oc1ccc(OCc2ccccc2/C(=C\OC)C(=O)OC)cc1 (stereo not shown) [compound 175],,,,,99%,100%,100%,14%,100%,100%
C=CCCOc1ccc(OCc2ccccc2/C(=C\OC)C(=O)OC)cc1 [compound 178],,,,,97%,100%,100%,89%,100%,100%
CCOc1ccc(OCc2ccccc2/C(=C\OC)C(=O)OC)cc1 [compound 183],,,,,100%,100%,100%,96%,100%,100%
CCCOc1ccc(OCc2ccccc2/C(=C\OC)C(=O)OC)cc1 [compound 192],,,,,100%,100%,100%,68%,100%,100%
CCCCCCCOc1cccc(OCc2ccccc2/C(=C\OC)C(=O)OC)c1 [compound 201],,,,,100%,100%,100%,12%,70%,100%
CCCCCCCCc1cccc(OCc2ccccc2/C(=C\OC)C(=O)OC)c1 [compound 229],,,,,0.00%,100%,100%,100%,100%,100%
CO/C=C(/C(=O)OC)c1ccc(Cl)cc1COc1cccc(CO)c1 [compound 262],,,,,93%,100%,100%,93%,100%,100%
CO/C=C(/C(=O)OC)c1ccccc1COc1cccc(N2CCOCC2)n1 [compound 348],,24%,99%,100%,,,,,,
CO/C=C(/C(=O)OC)c1ccccc1COc1cccc(N2CCOCC2)c1 [compound 349],2%,53%,100%,100%,,,,,,
CO/C=C(/C(=O)OC)c1ccccc1COc1ccc(NCC(C)C)cc1 [compound 361],,,95%,100%,,,,,,
C=CCN(CC=C)c1ccc(OCc2ccccc2/C(=C\OC)C(=O)OC)cc1F [compound 367],,,87%,100%,,,,,,
CO/C=C(/C(=O)OC)c1ccccc1COc1ccc(NCC2CC2)c(F)c1 [compound 372],,,91%,100%,,,,,,
CO/C=C(/C(=O)OC)c1ccccc1COc1cccc(NC2CCCC2)c1 [compound 380],,8%,51%,100%,,,,,,

SMILES,inhibition at 0.1 µM [1],inhibition at 0.3 µM [1],inhibition at 1 µM [1],inhibition at 3 µM [1],Reduction (%) of the resorption pit area of osteoclasts ([2]; 0.3 uM),Reduction (%) of the resorption pit area of osteoclasts ([2]; 1 uM),Reduction (%) of the resorption pit area of osteoclasts ([2]; 3 uM),Osteoclast formation inhibitory effects (%) ([1]; 0.3 μM),Osteoclast formation inhibitory effects (%) ([1]; 1.0 μM),Osteoclast formation inhibitory effects (%) ([1]; 3.0 μM)
C=CCNc1cccc(OCc2ccccc2/C(=C\OC)C(=O)OC)c1 [compound 381],,5%,67%,100%,,,,,,
CO/C=C(/C(=O)OC)c1ccccc1COc1cccc(NCCC(C)C)c1 [compound 383],,6%,94%,100%,,,,,,
CO/C=C(/C(=O)OC)c1ccc(Cl)cc1COc1cccc(N2CCCCC2)c1 [compound 387],1%,100%,100%,100%,,,,,,
CO/C=C(/C(=O)OC)c1ccc(Cl)cc1COc1cccc(N(C)c2ccccc2)c1 [compound 390],2%,94%,99%,100%,,,,,,
CO/C=C(/C(=O)OC)c1ccccc1COc1cccc(N2CCCC2)c1 [compound 392],,2%,95%,100%,,,,,,
CO/C=C(/C(=O)OC)c1ccccc1COc1ccc(N2CCCC2)cn1 [compound 397],,22%,100%,100%,,,,,,
CO/C=C(/C(=O)OC)c1ccccc1COc1ccc(N(C)c2ccccc2)cc1 [compound 400],0%,53%,99%,100%,,,,,,
CO/C=C(/C(=O)OC)c1ccccc1COc1cccc(N2CCN(C(=O)OC(C)(C)C)CC2)c1 [compound 406],41%,100%,100%,100%,,,,,,
CO/C=C(/C(=O)OC)c1ccccc1COc1ccc(N2CCOCC2)cc1F [compound 408],0%,52%,100%,100%,,,,,,
CO/C=C(/C(=O)OC)c1ccccc1COc1cccc(N2CCCCC2)n1 [compound 413],,11%,100%,100%,,,,,,
CO/C=C(/C(=O)OC)c1ccccc1COc1cccc(N(C)c2ccccc2)n1 [compound 414],,32%,100%,100%,,,,,,
CO/C=C(/C(=O)OC)c1ccccc1COc1ccc(N(C)c2ccccc2)c(F)c1 [compound 417],,24%,97%,100%,,,,,,
CO/C=C(/C(=O)OC)c1ccccc1COc1ccc(N2CCCC2)c(F)c1 [compound 418],,11%,81%,100%,,,,,,
C=CCN(CC=C)c1ccc(OCc2ccccc2/C(=C\OC)C(=O)OC)c(F)c1 [compound 421],,14%,100%,100%,,,,,,
CO/C=C(/C(=O)OC)c1ccccc1COc1ccc(N(CC2CC2)CC2CC2)cc1F [compound 422],11%,98%,100%,100%,,,,,,
CO/C=C(/C(=O)OC)c1ccccc1COc1ccc(NCC2CC2)cc1F [compound 423],0%,51%,100%,100%,,,,,,
CO/C=C(/C(=O)OC)c1ccccc1COc1ccc(N(C)CC2CC2)cc1F [compound 424],0%,92%,100%,100%,,,,,,
